Source: patent publication US8916574B2, “4-(substituted anilino)-quinazoline derivatives useful as tyrosine kinase inhibitors” (Qilu Pharmaceutical Co., Ltd., priority 2009, dated 2014)
Read-outs that look alike come from different tables or passages of the source.

Legend:
[1] = target: Her2 receptor tyrosine kinase (Homo sapiens (Human), UniProt P04626); experiment: In vitro kinase analysis, HTScan HER2/ErbB2 Kinase Assay Kit (substrate peptide phosphorylation); format: biochemical
Protocol: (§1) Operation steps refer to the specification of the used kits, and the method was used to measure the inhibition effects of the compound to be tested on substrate peptide phosphorylation of EGFR or Her2 receptor tyrosine kinase. At room temperature, ATP and substrate peptide as well as the compound to be tested were incubated in kinase reaction buffer, after a period of incubation, a stop buffer was added to terminate the reaction and the sample was transferred to a streptavidin-coated 96-well plate, the plate was washed and the phosphorylation level of substrate peptide was detected by using HRP-marked antibody against substrate phosphorylation, colorated with TMB, terminated the reaction with 2M sulfuric acid. Absorption at 450 nm wavelength was detected, and IC50 value (μM) was calculated.

[2] = target: hERG potassium currents (IKr) (Homo sapiens (Human), UniProt Q12809); experiment: hERG potassium currents, whole cell patch clamp in transfected HEK293 cells; format: cell-based; conditions: HEK293 cells transfected with hERG cDNA
[3] = Pharmacokinetics in SD rats after a single intragastric dose; format: in vivo; conditions: 100 mg/kg intragastric single dose, plasma
Protocol: The animals were fasted for 12 h before test, drinking water freely. And fed after 2 h of administration. At 0.25, 0.5, 1.0, 2.0, 3.0, 5.0, 7.0, 9.0, 12 and 24 h after administration, 0.3 ml blood samples were taken from venous plexus behind eyeball of rats into heparinized test tubes, then centrifuged at 11000 rpm for 5 min, plasma were separated, and preserved at […]. The concentrations of drug in original form and metabolites thereof in plasma were measured by liquid chromatography-mass spectrometry.

[4] = target: EGFR receptor tyrosine kinase (Homo sapiens (Human), UniProt P00533); experiment: In vitro kinase analysis, HTScan EGF Receptor Kinase Assay Kit (substrate peptide phosphorylation); format: biochemical
Protocol: as §1

[5] = test system: human ovarian cancer SK-OV-3 transplanted tumor; experiment: Tumor inhibition at a single dose, SK-OV-3 transplanted tumor in nude mice; format: in vivo, BALB/cA-nude mice; conditions: 200 mg/kg intragastrically, once per day, 21 days; for Animal number in each group: Partial regression: of 6 animals
Description: (§2) BALB/cA-nude mice, female, 4-6 weeks, body weight 22±2 g, were purchased from Shanghai SLAC Laboratory Animal Co. Ltd, raised in SPF grade environment.
(§3) In vitro cultured NCI-N87 cells were subcutaneously inoculated at right axillary fossa of nude mice, each was inoculated with about 5×10^6 cells, and passaged twice in vivo after tumor formation. Under sterile conditions, eugonic tumor tissues were cut into tumor pieces of about 1.5 mm^3, and inoculated at right axillary fossa of nude mice. Tumor diameters were measured by vernier caliper, the animals were randomly divided (d0) after the tumors grew to 100-200 mm^3. […] During administration period, the body weight of mice and the diameter of tumors were measured 3 times per week. The tumor volume and relative tumor volume were calculated according to the measured data, the formulation for calculating tumor volume (TV) is: TV=½×a×b^2, wherein a, b represent major diameter and minor diameter of tumor; the formulation for calculating relative tumor volume (RTV) is: RTV=Vt/V0, wherein V0 is the tumor volume measured when dividing groups for administration (i.e., d0), Vt is tumor volume measured each time. […] The formulation for calculating relative tumor inhibition rate is: 1−T/C (%).
(§4) Nude mice were subcutaneously inoculated with human ovarian cancer SK-OV-3 cells, after tumors grew to 60-150 mm^3, the animals were randomly divided into groups (d0). […] During the administration period, the body weight of mice and the diameter of tumor were measured 3 times per week. The tumor volume, relative tumor inhibition rate and so on were calculated according to the aforementioned methods.

[6] = test system: human breast cancer cells BT474; experiment: Test of cell proliferation inhibition (SRB), BT474; format: cell-based; conditions: BT-474, 72 h
Protocol: (§5) The test was performed by referring to the method as described by Rusnak et al., Cell Prolif, 2007, 40, 580-594. The test of cell proliferation inhibition used human breast cancer cells BT474 and human gastric cancer cell line NCI-N87, BT474 over-expressing Her2 receptor, N87 over-expressing EGFR and Her2 receptor.
(§6) In a Dulbecco Modified Eagle Medium (DMEM) comprising 10% fetal bovine serum, 2 mM glutamine and non-essential amino acids, cells were cultured at 37° C. in 5% CO2 cell incubator, and trypsin/ethylenediamine tetraacetic acid (EDTA) were used to harvest cells in cell culture bottle. […] The change of cell form was observed under microscope, then 50 μl 50% (mass/volume)trichloroacetic acid (TCA) was added to per well to fix cells. The final concentration of TCA was 10%, standing for 5 min and placing in 4° C. refrigerator for 1 h, the wells of the culture plate were washed with deionized water for 5 times to remove TCA, drained, dried in air until no wet trace was observed. 100 μl of 0.4% (mass/volume) SRB was added to each well, stood at room temperature for 10 min, the liquid in each well was discarded, then the wells were washed with 1% acetic acid for 5 times, dried in air, extracted with 150 μl of 10 mM Tris base (trihydroxymethylaminomethane, pH 10.5), the absorption at 540 nm wavelength was detected.

[7] = test system: human gastric cancer NCI-N87 transplanted tumor; experiment: Tumor inhibition at a single dose, NCI-N87 transplanted tumor in nude mice; format: in vivo, BALB/cA-nude mice; conditions: 200 mg/kg intragastrically, once per day, 28 days; for Rate of tumor inhibition d21 (%): head prints d21; for d28 Vave (tumor volume): in mm³; for Animal number in each group: Partial regression: of 6 animals
Description: as §2, §3

[8] = test system: human gastric cancer cell line NCI-N87; experiment: Test of cell proliferation inhibition (SRB), N87; format: cell-based; conditions: for IC50: Homo sapiens, NCI-N87, 72 h, read-out: Test of cell proliferation inhibition IC50 N87
Protocol: as §5, §6

[9] = test system: human ovarian cancer SK-OV-3 transplanted tumor; experiment: Tumor inhibition at different dosages, SK-OV-3 transplanted tumor in nude mice; format: in vivo, BALB/cA-nude mice; conditions: once per day, 21 days; for Animal number in each group: Partial regression: of 6 animals
Description: as §2, §3
as §4, with “The tumor volume, and” for “During the administration period, the”, “mice” for “mice and the diameter of tumor”, “week, and all data were recorded.” for “week.”

EGFR receptor tyrosine kinase, sequence (P00533 25-1210): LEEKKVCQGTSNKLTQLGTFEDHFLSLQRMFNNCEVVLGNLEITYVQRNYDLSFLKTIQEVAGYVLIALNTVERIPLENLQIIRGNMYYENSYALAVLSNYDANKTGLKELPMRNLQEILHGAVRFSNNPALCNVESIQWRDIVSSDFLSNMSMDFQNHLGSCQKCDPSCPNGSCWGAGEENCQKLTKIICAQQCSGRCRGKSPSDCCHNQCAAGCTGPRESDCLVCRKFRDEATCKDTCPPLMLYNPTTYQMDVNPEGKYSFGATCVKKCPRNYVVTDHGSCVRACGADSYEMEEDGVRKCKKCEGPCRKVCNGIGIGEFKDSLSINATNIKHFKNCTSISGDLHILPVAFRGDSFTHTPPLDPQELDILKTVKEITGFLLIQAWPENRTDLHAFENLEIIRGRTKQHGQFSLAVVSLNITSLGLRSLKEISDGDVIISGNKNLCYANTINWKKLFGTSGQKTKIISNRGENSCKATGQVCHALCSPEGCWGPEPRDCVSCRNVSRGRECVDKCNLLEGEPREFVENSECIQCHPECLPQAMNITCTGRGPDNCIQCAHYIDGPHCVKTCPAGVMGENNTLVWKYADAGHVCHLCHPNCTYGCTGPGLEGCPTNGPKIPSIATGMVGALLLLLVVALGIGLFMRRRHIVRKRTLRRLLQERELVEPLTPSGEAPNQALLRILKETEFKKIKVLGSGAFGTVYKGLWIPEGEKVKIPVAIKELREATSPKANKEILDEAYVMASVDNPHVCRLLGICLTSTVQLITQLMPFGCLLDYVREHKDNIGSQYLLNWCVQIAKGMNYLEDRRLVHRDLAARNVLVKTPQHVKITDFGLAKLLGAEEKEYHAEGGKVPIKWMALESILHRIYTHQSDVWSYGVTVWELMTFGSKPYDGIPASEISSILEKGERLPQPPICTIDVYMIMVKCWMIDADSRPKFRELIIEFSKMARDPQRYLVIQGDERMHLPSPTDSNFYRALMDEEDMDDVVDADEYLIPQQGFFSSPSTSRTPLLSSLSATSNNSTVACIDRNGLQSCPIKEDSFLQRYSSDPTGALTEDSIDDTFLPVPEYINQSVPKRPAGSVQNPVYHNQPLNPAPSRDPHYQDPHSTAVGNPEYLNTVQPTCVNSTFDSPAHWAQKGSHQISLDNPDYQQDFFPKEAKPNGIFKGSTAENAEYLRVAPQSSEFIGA
Her2 receptor tyrosine kinase, sequence (P04626 23-1255): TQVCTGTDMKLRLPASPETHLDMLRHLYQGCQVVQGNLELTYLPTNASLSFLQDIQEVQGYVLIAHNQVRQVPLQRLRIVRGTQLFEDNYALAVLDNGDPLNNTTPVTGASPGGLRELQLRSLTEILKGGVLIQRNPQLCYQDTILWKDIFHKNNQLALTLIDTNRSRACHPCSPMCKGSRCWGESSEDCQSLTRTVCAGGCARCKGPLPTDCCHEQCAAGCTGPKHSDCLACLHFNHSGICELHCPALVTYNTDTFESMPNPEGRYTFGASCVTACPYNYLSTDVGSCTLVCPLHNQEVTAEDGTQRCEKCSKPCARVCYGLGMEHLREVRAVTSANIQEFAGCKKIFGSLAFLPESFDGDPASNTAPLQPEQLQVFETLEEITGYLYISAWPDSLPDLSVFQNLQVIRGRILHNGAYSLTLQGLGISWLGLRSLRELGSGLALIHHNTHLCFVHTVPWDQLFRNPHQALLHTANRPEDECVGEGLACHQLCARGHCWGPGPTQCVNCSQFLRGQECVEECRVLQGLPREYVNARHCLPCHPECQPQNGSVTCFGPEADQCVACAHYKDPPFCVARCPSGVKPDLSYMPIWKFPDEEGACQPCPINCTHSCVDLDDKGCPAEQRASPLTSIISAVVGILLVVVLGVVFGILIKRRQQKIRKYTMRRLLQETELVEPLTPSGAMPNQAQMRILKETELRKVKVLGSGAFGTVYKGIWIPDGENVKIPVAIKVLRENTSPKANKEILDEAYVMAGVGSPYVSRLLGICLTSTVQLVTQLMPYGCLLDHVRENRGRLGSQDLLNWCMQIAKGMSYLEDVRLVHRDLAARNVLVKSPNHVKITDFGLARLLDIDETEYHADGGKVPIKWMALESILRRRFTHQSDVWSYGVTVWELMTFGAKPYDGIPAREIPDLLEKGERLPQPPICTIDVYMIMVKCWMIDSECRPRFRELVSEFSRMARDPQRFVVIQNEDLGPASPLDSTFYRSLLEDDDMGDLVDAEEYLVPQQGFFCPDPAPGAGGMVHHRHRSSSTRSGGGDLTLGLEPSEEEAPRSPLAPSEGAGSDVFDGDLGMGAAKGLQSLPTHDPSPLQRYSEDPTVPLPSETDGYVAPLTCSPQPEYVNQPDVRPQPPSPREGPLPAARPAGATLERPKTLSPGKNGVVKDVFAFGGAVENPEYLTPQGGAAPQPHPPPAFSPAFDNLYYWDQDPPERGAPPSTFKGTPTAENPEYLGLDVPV
hERG potassium currents (IKr), sequence (Q12809 whole entry): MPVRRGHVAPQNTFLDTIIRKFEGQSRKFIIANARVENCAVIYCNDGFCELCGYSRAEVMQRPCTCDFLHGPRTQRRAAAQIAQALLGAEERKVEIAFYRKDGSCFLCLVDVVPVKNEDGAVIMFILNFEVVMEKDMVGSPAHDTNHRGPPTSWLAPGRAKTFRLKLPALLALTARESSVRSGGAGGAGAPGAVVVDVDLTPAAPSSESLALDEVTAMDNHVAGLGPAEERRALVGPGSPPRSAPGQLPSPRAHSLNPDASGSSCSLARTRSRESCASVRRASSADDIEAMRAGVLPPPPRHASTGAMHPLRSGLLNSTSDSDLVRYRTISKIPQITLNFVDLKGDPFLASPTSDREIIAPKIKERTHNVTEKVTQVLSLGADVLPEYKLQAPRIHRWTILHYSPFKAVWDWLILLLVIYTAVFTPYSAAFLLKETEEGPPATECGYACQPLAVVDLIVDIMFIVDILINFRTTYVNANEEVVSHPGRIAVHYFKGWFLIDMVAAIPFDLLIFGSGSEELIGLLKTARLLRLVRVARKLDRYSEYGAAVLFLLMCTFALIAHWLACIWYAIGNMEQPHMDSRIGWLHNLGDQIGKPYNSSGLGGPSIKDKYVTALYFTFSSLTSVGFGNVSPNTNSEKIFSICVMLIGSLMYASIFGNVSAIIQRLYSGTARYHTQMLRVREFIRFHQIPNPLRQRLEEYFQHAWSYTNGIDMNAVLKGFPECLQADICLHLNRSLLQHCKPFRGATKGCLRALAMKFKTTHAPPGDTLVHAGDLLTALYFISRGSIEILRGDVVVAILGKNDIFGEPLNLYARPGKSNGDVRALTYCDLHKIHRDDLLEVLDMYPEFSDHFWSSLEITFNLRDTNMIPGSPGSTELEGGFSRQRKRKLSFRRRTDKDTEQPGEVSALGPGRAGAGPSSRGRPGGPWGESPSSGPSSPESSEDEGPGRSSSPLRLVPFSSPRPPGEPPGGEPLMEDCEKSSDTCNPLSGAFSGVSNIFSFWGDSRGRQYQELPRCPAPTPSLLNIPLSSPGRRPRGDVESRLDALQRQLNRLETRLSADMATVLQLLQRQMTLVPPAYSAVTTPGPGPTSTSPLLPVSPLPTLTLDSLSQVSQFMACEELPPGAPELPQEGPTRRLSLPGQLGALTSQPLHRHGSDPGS

Row | Structure (SMILES) | IC50 [1] | IC50 [4] | Rate of tumor inhibition d21 (%) [5] | d21 Vave (tumor volume) [5] | Animal number in each group: Partial regression [5] | IC50 [6] | Rate of tumor inhibition d21 (%) [7] | d28 Vave (tumor volume) [7] | Animal number in each group: Partial regression [7] | IC50 [8] | further results
1 | NS(=O)(=O)CCNCc1ccc(-c2ccc3ncnc(Nc4ccc(OCc5cccc(F)c5)c(Cl)c4)c3c2)o1 [Compound 1, N-(4-(3-fluorobenzyloxy)-3-chlorophenyl)-6-(5-((2-(sulfamoyl)ethylamino)methyl)-2-furyl)-quinazolin-4-amine] | 0.00155 µM |  |  |  |  |  |  |  |  |  | 
2 | C[S+]([O-])CCNCc1ccc(-c2ccc3ncnc(Nc4ccc(OCc5cccc(F)c5)c(Cl)c4)c3c2)o1 (centres unmarked) [Compound 2, N-(4-(3-fluorobenzyloxy)-3-chlorophenyl)-6-(5-((2-(methylsulfinyl)ethylamino)methyl)-2-furyl)-quinazolin-4-amine] |  | 0.0527 µM |  |  |  |  |  |  |  |  | IC50 ([2]; read-out: semi-effective inhibition dose IC50 for IKr pulse current): 10.1 ± 0.96 µM; IC50 ([2]; read-out: semi-effective inhibition dose IC50 for tail current): ~9.24 µM; AUC0-t ± SD [3]: 50299 ± 12863 ng·h/mL; AUC0-∞ ± SD [3]: 53236 ± 12248 ng·h/mL; Cmax ± SD [3]: 8881 ± 2061 ng/mL; MRT ± SD [3]: 5.38 ± 0.59 h; T1/2 ± SD [3]: 2.32 ± 0.5 h; Tmax ± SD [3]: 3.5 ± 1.0 h
3 | CSCCNCc1ccc(-c2ccc3ncnc(Nc4ccc(OCc5cccc(F)c5)c(Cl)c4)c3c2)o1 [Compound 3, N-(4-(3-fluorobenzyloxy)-3-chlorophenyl)-6-(5-((2-(methylthio)ethylamino)methyl)-2-furyl)-quinazolin-4-amine] | 0.0346 µM | 0.0562 µM | 75% | 334.8 mm^3 | 0 | 0.0234 µM | 84.6% | 143.01 | 4 | 0.0249 µM | RTV (relative tumor volume) [5]: 2.7; RTV (relative tumor volume) [7]: 0.743; RTV (relative tumor volume) ([9]; 50 mg/kg intragastrically): 6.9; Rate of tumor inhibition d21 (%) ([9]; 50 mg/kg intragastrically): 32%; d21 Vave (tumor volume) ([9]; 50 mg/kg intragastrically): 830.7 mm^3; Animal number in each group: Partial regression ([9]; 50 mg/kg intragastrically): 0; RTV (relative tumor volume) ([9]; 100 mg/kg intragastrically): 6.5; Rate of tumor inhibition d21 (%) ([9]; 100 mg/kg intragastrically): 36%; d21 Vave (tumor volume) ([9]; 100 mg/kg intragastrically): 778.6 mm^3; Animal number in each group: Partial regression ([9]; 100 mg/kg intragastrically): 0; RTV (relative tumor volume) ([9]; 200 mg/kg intragastrically): 4.4; Rate of tumor inhibition d21 (%) ([9]; 200 mg/kg intragastrically): 56%; d21 Vave (tumor volume) ([9]; 200 mg/kg intragastrically): 612.6 mm^3; Animal number in each group: Partial regression ([9]; 200 mg/kg intragastrically): 0
4 | CS(=O)(=O)NCCNCc1ccc(-c2ccc3ncnc(Nc4ccc(OCc5cccc(F)c5)c(Cl)c4)c3c2)o1 [Compound 4, N-(4-(3-fluorobenzyloxy)-3-chlorophenyl)-6-(5-((2-(methylsulfonamido)ethylamino)methyl)-2-furyl)-quinazolin-4-amine] | 0.00706 µM | 0.0155 µM |  |  |  |  |  |  |  |  | 
5 | O=S(=O)(CCNCc1ccc(-c2ccc3ncnc(Nc4ccc(OCc5cccc(F)c5)c(Cl)c4)c3c2)o1)CC(F)(F)F [Compound 5, N-(4-(3-fluorobenzyloxy)-3-chlorophenyl)-6-(5-((2-(2,2,2-trifluoroethylsulfonyl)ethylamino)methyl)-2-furyl)-quinazolin-4-amine] | 0.00808 µM | 0.0146 µM | 45% | 770.9 mm^3 | 0 | 0.0188 µM | 46.8% | 414.78 | 1 | 0.0337 µM | RTV (relative tumor volume) [5]: 5.8; RTV (relative tumor volume) [7]: 2.574
6 | O=S(=O)(CCNCc1ccc(-c2ccc3ncnc(Nc4ccc(OCc5cccc(F)c5)c(Cl)c4)c3c2)o1)C(F)(F)F [Compound 6, N-(4-(3-fluorobenzyloxy)-3-chlorophenyl)-6-(5-((2-(trifluoromethylsulfonyl)ethylamino)methyl)-2-furyl)-quinazolin-4-amine] | 0.0256 µM | 0.0324 µM |  |  |  | 0.0497 µM |  |  |  | 0.0546 µM | 
7 | CS(=O)(=O)CCNCc1ccc(-c2ccc3ncnc(Nc4ccc(OCc5cccc(F)c5)c(Cl)c4)c3c2)o1 [Compound 61, N-(4-(3-fluorobenzyloxy)-3-chlorophenyl)-6-(5-((2-(methylsulfonyl)ethylamino)methyl)-2-furyl)-quinazolin-4-amine, reference compound] |  |  | 79% | 291.0 mm^3 | 1 |  | 89.8% | 106.20 | 5 |  | biological activity results in the same test (in words) ([8]; same test as Table 1 (cell proliferation inhibition, N87 and BT474), comparison in words): close to those of compound 6; Rate of tumor inhibition d21 (%) ([9]; 200 mg/kg intragastrically): 75%; d21 Vave (tumor volume) ([9]; 200 mg/kg intragastrically): 350.1 mm^3; Animal number in each group: Partial regression ([9]; 200 mg/kg intragastrically): 0; AUC0-t ± SD [3]: 26908 ± 9085 ng·h/mL; AUC0-∞ ± SD [3]: 26921 ± 9092 ng·h/mL; Cmax ± SD [3]: 3902 ± 1208 ng/mL; MRT ± SD [3]: 5.52 ± 0.90 h; T1/2 ± SD [3]: 1.91 ± 0.45 h; Tmax ± SD [3]: 2.5 ± 0.6 h
